# According to patent US20190345138A1, “HETEROCYCLIC AMIDES AS KINASE INHIBITORS” (GlaxoSmithKline Intellectual Property Development Limited, priority 2016, published 2019):
# Several values for one entry are separate records, joined by “and”; a condition that tells them apart may be missing. Equal values may be shown once.
# Target: T1, RIP1 kinase (Homo sapiens, UniProt Q13546)
# T1 sequence (Q13546 1-375 limits assumed): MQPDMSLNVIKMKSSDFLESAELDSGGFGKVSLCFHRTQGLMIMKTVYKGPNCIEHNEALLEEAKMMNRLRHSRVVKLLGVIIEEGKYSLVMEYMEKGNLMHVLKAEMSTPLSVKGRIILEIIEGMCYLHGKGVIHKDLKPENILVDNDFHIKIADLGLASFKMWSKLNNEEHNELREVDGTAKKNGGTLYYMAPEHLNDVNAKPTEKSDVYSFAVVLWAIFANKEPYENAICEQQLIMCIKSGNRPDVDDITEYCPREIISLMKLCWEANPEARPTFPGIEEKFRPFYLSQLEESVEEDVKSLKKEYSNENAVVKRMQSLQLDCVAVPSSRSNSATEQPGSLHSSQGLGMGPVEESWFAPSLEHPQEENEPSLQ
# Assay: fluorescent polarization based binding assay
# Conditions: mean of a minimum of 2 experiments
# Text: A fluorescent polarization based binding assay was used to assess the activity of the compounds of this invention, the details of which are disclosed in International Patent Appln. No. PCT/IB2014/059004, now, International Patent Appln. Pub.
row,Structure (SMILES),IC50
1,"CCOc1ccnc(N2CCC(C(=O)N3N=CC[C@H]3c3ccccc3)CC2)n1 [Example 58, (S)-(1-(4-ethoxypyrimidin-2-yl)piperidin-4-yl)(5-phenyl-4,5-dihydro-1H-pyrazol-1-yl)methanone]",1 to 31.6 nM and 1 to 10 nM
2,"COc1ccc(N2CCC(C(=O)N3N=CC[C@H]3c3ccccc3)CC2)nn1 [Example 49, (S)-(1-(6-methoxypyridazin-3-yl)piperidin-4-yl)(5-phenyl-4,5-dihydro-1H-pyrazol-1-yl)methanone]",1 to 31.6 nM
3,"N#Cc1cccc([C@@H]2CC=NN2C(=O)C2CCN(c3ccn4nccc4n3)CC2)c1 [Example 62, (S)-3-(1-(1-(pyrazolo[1,5-a]pyrimidin-5-yl)piperidine-4-carbonyl)-4,5-dihydro-1H-pyrazol-5-yl)benzonitrile]",1 to 31.6 nM
4,"COC(=O)c1cnc(N2CCC(C(=O)N3N=CC[C@H]3c3ccccc3)CC2)nc1 [Example 10, (S)-methyl 2-(4-(5-phenyl-4,5-dihydro-1H-pyrazole-1-carbonyl)piperidin-1-yl)pyrimidine-5-carboxylate]",1 to 31.6 nM
5,"NC(=O)c1ccc(N2CCC(C(=O)N3N=CC[C@H]3c3ccccc3)CC2)nc1 [Example 30, (S)-6-(4-(5-phenyl-4,5-dihydro-1H-pyrazole-1-carbonyl)piperidin-1-yl)nicotinamide]",1 to 31.6 nM
6,"NC(=O)c1cnc(N2CCC(C(=O)N3N=CC[C@H]3c3ccccc3)CC2)cn1 [Example 63, (S)-5-(4-(5-phenyl-4,5-dihydro-1H-pyrazole-1-carbonyl)piperidin-1-yl)pyrazine-2-carboxamide]",1 to 31.6 nM
7,"O=C(C1CCN(c2nc(=O)c3cn[nH]c3[nH]2)CC1)N1N=CC[C@H]1c1ccccc1 [Example 37, (S)-6-(4-(5-phenyl-4,5-dihydro-1H-pyrazole-1-carbonyl)piperidin-1-yl)-1H-pyrazolo[3,4-d]pyrimidin-4(7H)-one]",1 to 31.6 nM

# The remaining lines, values ahead:
row,IC50,Structure (SMILES)
1,1 to 31.6 nM and 1 to 10 nM,"NC(=O)c1ncnc(N2CCC(C(=O)N3N=CC[C@H]3c3cc(F)cc(F)c3)CC2)c1F [Example 165, (S)-6-(4-(5-(3,5-difluorophenyl)-4,5-dihydro-1H-pyrazole-1-carbonyl)piperidin-1-yl)-5-fluoropyrimidine-4-carboxamide]"
2,1 to 31.6 nM and 1 to 10 nM,"N#Cc1coc(N2CCC(C(=O)N3N=CC[C@H]3c3ccccc3)CC2)n1 [Example 137, (S)-2-(4-(5-phenyl-4,5-dihydro-2H-pyrazole-1-carbonyl)piperidin-1-yl)oxazole-4-carbonitrile]"
3,1 to 31.6 nM,"CCOC(=O)c1cnc(N2CCC(C(=O)N3N=CC[C@H]3c3cc(F)cc(F)c3)CC2)o1 [Example 107, (S)-ethyl 2-(4-(5-(3,5-difluorophenyl)-4,5-dihydro-1H-pyrazole-1-carbonyl)piperidin-1-yl)oxazole-5-carboxylate]"
4,1 to 31.6 nM,"CSc1nccc(N2CCC(C(=O)N3N=CC[C@H]3c3cncc(F)c3)CC2)n1 [Example 114, (S)-(5-(5-fluoropyridin-3-yl)-4,5-dihydro-1H-pyrazol-1-yl)(1-(2-(methylthio)pyrimidin-4-yl)piperidin-4-yl)methanone]"
5,1 to 31.6 nM,"CC(=O)Nc1cc(N2CCC(C(=O)N3N=CC[C@H]3c3cc(F)cc(F)c3)CC2)ncn1 [Example 120, (S)-N-(6-(4-(5-(3,5-difluorophenyl)-4,5-dihydro-1H-pyrazole-1-carbonyl)piperidin-1-yl)pyrimidin-4-yl)acetamide]"
6,1 to 31.6 nM and 1 to 10 nM,"O=C(C1CCN(c2ccn3nccc3n2)CC1)N1N=CC[C@H]1c1cc(F)cc(F)c1 [Example 90, (S)-(5-(3,5-difluorophenyl)-4,5-dihydro-1H-pyrazol-1-yl)(1-(pyrazolo[1,5-a]pyrimidin-5-yl)piperidin-4-yl)methanone]"
7,1 to 31.6 nM,"COc1nccc(N2CCC(C(=O)N3N=CC[C@H]3c3cccc(C#N)c3)CC2)n1 [Example 75, (S)-3-(1-(1-(2-methoxypyrimidin-4-yl)piperidine-4-carbonyl)-4,5-dihydro-1H-pyrazol-5-yl)benzonitrile]"
8,1 to 31.6 nM and 1 to 10 nM,"O=C(C1CCN(c2nccc(-c3nn[nH]n3)n2)CC1)N1N=CC[C@H]1c1ccccc1 [Example 148, (S)-(1-(4-(2H-tetrazol-5-yl)pyrimidin-2-yl)piperidin-4-yl)(5-phenyl-4,5-dihydro-1H-pyrazol-1-yl)methanone]"
9,1 to 31.6 nM and 1 to 10 nM,"O=C(C1CCN(c2ncc(F)c(OCc3nn[nH]n3)n2)CC1)N1N=CC[C@H]1c1ccccc1 [Example 154, (S)-(1-(4-((2H-tetrazol-5-yl)methoxy)-5-fluoropyrimidin-2-yl)piperidin-4-yl)(5-phenyl-4,5-dihydro-1H-pyrazol-1-yl)methanone]"
10,1 to 31.6 nM,"CCOC(=O)c1coc(N2CCC(C(=O)N3N=CC[C@H]3c3ccccc3)CC2)n1 [Example 65, (S)-ethyl 2-(4-(5-phenyl-4,5-dihydro-1H-pyrazole-1-carbonyl)piperidin-1-yl)oxazole-4-carboxylate]"
11,1 to 31.6 nM,"COc1cc(N2CCC(C(=O)N3N=CC[C@H]3c3cncc(F)c3)CC2)ncn1 [Example 113, (S)-(5-(5-fluoropyridin-3-yl)-4,5-dihydro-1H-pyrazol-1-yl)(1-(6-methoxypyrimidin-4-yl)piperidin-4-yl)methanone]"
12,1 to 31.6 nM,"NC(=O)COc1nc(N2CCC(C(=O)N3N=CC[C@H]3c3ccccc3)CC2)ncc1F [Example 167, (S)-2-((5-fluoro-2-(4-(5-phenyl-4,5-dihydro-1H-pyrazole-1-carbonyl)piperidin-1-yl)pyrimidin-4-yl)oxy)acetamide]"
13,1 to 31.6 nM,"NC(=O)c1coc(N2CCC(C(=O)N3N=CC[C@H]3c3ccccc3)CC2)n1 [Example 136, (S)-2-(4-(5-phenyl-4,5-dihydro-1H-pyrazole-1-carbonyl)piperidin-1-yl)oxazole-4-carboxamide]"
14,1 to 31.6 nM,"O=C1NCC[C@@H]1c1nc(N2CCC(C(=O)N3N=CC[C@H]3c3cncc(F)c3)CC2)ncc1F [Example 166, (R)-3-(5-fluoro-2-(4-((S)-5-(5-fluoropyridin-3-yl)-4,5-dihydro-1H-pyrazole-1-carbonyl)piperidin-1-yl)pyrimidin-4-yl)pyrrolidin-2-one]"

# System: human monocytic leukemia U937 cells
# Assay: necroptosis assay in U937 cells
# Format: cell-based
# Conditions: Homo sapiens, U-937, U937 cells; viability by cellular ATP (Cell Titer-Glo); read-out: pIC50, inhibited necrosis in U937 cells (converted)
# Procedure: The efficacy of RIP1 inhibitors can be tested […] in vitro using a human monocytic leukemia U937 or mouse L929 fibrosarcoma cells in a necroptosis assay. As determined using the method described in S. He et al., Cell, 137(6):1100-1111 (2009) and International Patent Appln. No. PCT/IB2014/059004, now, International Patent Appln. Pub.
# Viability was measured by quantitating cellular levels of ATP using the Cell Titer-Glo kit. All data are means±standard deviation of the mean.
row,Structure (SMILES),IC50
1,"NC(=O)c1ncnc(N2CCC(C(=O)N3N=CC[C@H]3c3cc(F)cc(F)c3)CC2)c1F [Example 165, (S)-6-(4-(5-(3,5-difluorophenyl)-4,5-dihydro-1H-pyrazole-1-carbonyl)piperidin-1-yl)-5-fluoropyrimidine-4-carboxamide]",1 to 100 nM
2,"CCOc1ccnc(N2CCC(C(=O)N3N=CC[C@H]3c3ccccc3)CC2)n1 [Example 58, (S)-(1-(4-ethoxypyrimidin-2-yl)piperidin-4-yl)(5-phenyl-4,5-dihydro-1H-pyrazol-1-yl)methanone]",1 to 100 nM
3,"COc1ccc(N2CCC(C(=O)N3N=CC[C@H]3c3ccccc3)CC2)nn1 [Example 49, (S)-(1-(6-methoxypyridazin-3-yl)piperidin-4-yl)(5-phenyl-4,5-dihydro-1H-pyrazol-1-yl)methanone]",1 to 100 nM
4,"N#Cc1coc(N2CCC(C(=O)N3N=CC[C@H]3c3ccccc3)CC2)n1 [Example 137, (S)-2-(4-(5-phenyl-4,5-dihydro-2H-pyrazole-1-carbonyl)piperidin-1-yl)oxazole-4-carbonitrile]",1 to 100 nM
5,"O=C(NC1CC1)c1ccnc(N2CCC(C(=O)N3N=CC[C@H]3c3ccccc3)CC2)n1 [Example 125, (S)—N-cyclopropyl-2-(4-(5-phenyl-4,5-dihydro-1H-pyrazole-1-carbonyl)piperidin-1-yl)pyrimidine-4-carboxamide]",1 to 100 nM
6,"N#Cc1ccc(N2CCC(C(=O)N3N=CC[C@H]3c3cc(F)cc(F)c3)CC2)nn1 [Example 94, (S)-6-(4-(5-(3,5-difluorophenyl)-4,5-dihydro-1H-pyrazole-1-carbonyl)piperidin-1-yl)pyridazine-3-carbonitrile]",1 to 100 nM
7,"N#Cc1cnc(N2CCC(C(=O)N3N=CC[C@H]3c3cc(F)cc(F)c3)CC2)cn1 [Example 95, (S)-5-(4-(5-(3,5-difluorophenyl)-4,5-dihydro-1H-pyrazole-1-carbonyl)piperidin-1-yl)pyrazine-2-carbonitrile]",1 to 100 nM
8,"O=C1NCCC1c1nc(N2CCC(C(=O)N3N=CC[C@H]3c3cncc(F)c3)CC2)ncc1F (stereo partly drawn) [Example 151, 3-(5-fluoro-2-(4-((S)-5-(5-fluoropyridin-3-yl)-4,5-dihydro-1H-pyrazole-1-carbonyl)piperidin-1-yl)pyrimidin-4-yl)pyrrolidin-2-one]",1 to 100 nM
9,"Cc1nnc(-c2cc(N3CCC(C(=O)N4N=CC[C@H]4c4ccccc4)CC3)ncn2)o1 [Example 129, (S)-(1-(6-(5-methyl-1,3,4-oxadiazol-2-yl)pyrimidin-4-yl)piperidin-4-yl)(5-phenyl-4,5-dihydro-1H-pyrazol-1-yl)methanone]",1 to 100 nM
10,"O=C(C1CCN(c2nccc(-c3ccccc3)n2)CC1)N1N=CCC1c1ccccc1 (racemic) [Example 4, (5-phenyl-4,5-dihydro-1H-pyrazol-1-yl)(1-(4-phenylpyrimidin-2-yl)piperidin-4-yl)methanone]",1 to 100 nM
11,"N#Cc1ccnc(N2CCC(C(=O)N3N=CCC3c3ccccc3)CC2)n1 (racemic) [Example 5, 2-(4-(5-phenyl-4,5-dihydro-1H-pyrazole-1-carbonyl)piperidin-1-yl)pyrimidine-4-carbonitrile]",1 to 100 nM
12,"NC(=O)c1ncnc(N2CCC(C(=O)N3N=CC[C@H]3c3cncc(F)c3)CC2)c1F [Example 160, (S)-5-fluoro-6-(4-(5-(5-fluoropyridin-3-yl)-4,5-dihydro-1H-pyrazole-1-carbonyl)piperidin-1-yl)pyrimidine-4-carboxamide]",1 to 100 nM
13,"N#Cc1cc(N2CCC(C(=O)N3N=CC[C@H]3c3cncc(F)c3)CC2)ncn1 [Example 111, (S)-6-(4-(5-(5-fluoropyridin-3-yl)-4,5-dihydro-1H-pyrazole-1-carbonyl)piperidin-1-yl)pyrimidine-4-carbonitrile]",1 to 100 nM
